From US20250122455A1, “INTEGRATED SYSTEM FOR MULTIPLE CULTIVATIONS OF A BIOLOGICAL AGENT AND METHODS OF USE THEREOF” (The Hong Kong Polytechnic University, priority 2023, published 2025)

Columns and labels:
PAO1 static biofilms = experiment: Alamar blue viability of static biofilms in the BDR device after antibiotic treatment; format: cell-based, Pseudomonas aeruginosa
Procedure: The PAO1 culture was diluted 100-fold in ABTGC media and inoculated at 100 μl into each channel of the microfluidic model using a syringe and needle. Then the model was placed in a 37° C. incubator for 20 mins to allow bacteria to colonize the bottom of the microwells. ABTGC media containing tobramycin (Sigma) with concentrations of 0, 0.625, 1.25, 2.5, 5 ug/ml were injected into each chamber for 12 hrs treatment. Alamar blue cell viability reagent (Thermo Fisher) was diluted with culture media to 10% and injected into chambers, then incubated at 37° C. until the color changed from blue to pink. The colored liquid was collected from the chamber for direct measurement of OD600 nm and fluorescence (Ex: 560 nm, Em: 590 nm) using a microplate reader (Thermo Scientific Varioskan LUX Multimode Microplate Reader).

P. aeruginosa biofilms = format: cell-based, Pseudomonas aeruginosa

Row | Compound | Fluorescence level of Alamar blue (PAO1 static biofilms; increasing tobramycin 0-5 ug/ml, 12 hrs treatment, without continuous flow, FIG. 22A) | Bacterial numbers (viable cell populations) (PAO1 static biofilms; increasing tobramycin, static biofilms, FIG. 22B) | Biofilm biomass change during EDA (P. aeruginosa biofilms)
1 | NC[C@H]1O[C@H](O[C@H]2[C@H](O)[C@@H](O[C@H]3O[C@H](CO)[C@@H](O)[C@H](N)[C@H]3O)[C@H](N)C[C@@H]2N)[C@H](N)C[C@@H]1O [tobramycin] | decreased | reducing bacterial numbers | 
2 | cellulase |  |  | continuous reduction of biofilm from top to bottom of the microwells
